Experimental data taken from ChEMBL document CHEMBL1151840, “Synthetic oligoribonucleotides containing arabinonucleotides act as agonists of TLR7 and 8” (Bioorg Med Chem Lett, 2009).
The source made the active and inactive calls. The calls are words filed in the database; no cut-off is given here.

What was measured:
[1] = tested on: PBMC; assay: Stimulation of immune response in human PBMC assessed as induction of IL8 production at 150 ug/ml after 24 hrs; type: functional, cell-based
[2] = species on record: Homo sapiens; assay: Stimulation of immune response in human pDC assessed as induction of IL12 production at 150 ug/ml after 24 hrs; type: functional
[3] = tested on: PBMC; assay: Stimulation of immune response in human PBMC assessed as induction of MCP1 production at 150 ug/ml after 24 hrs; type: functional, cell-based
[4] = species on record: Homo sapiens; assay: Stimulation of immune response in human pDC assessed as induction of IFN-gamma production at 150 ug/ml after 24 hrs; type: functional
[5] = tested on: PBMC; assay: Stimulation of immune response in human PBMC assessed as induction of IFN-gamma production at 150 ug/ml after 24 hrs; type: functional, cell-based
[6] = species on record: Homo sapiens; assay: Stimulation of immune response in human pDC assessed as induction of IFNalpha production at 150 ug/ml after 24 hrs; type: functional
[7] = tested on: Mus musculus; assay: Stimulation of immune response in C57BL/6 mouse assessed as induction of serum IL12 production at 50 mg/kg, sc after 2 hrs by luminex multiplex assay; type: functional, organism-based; design: dose 50 mg/kg
[8] = biological target: T1, Toll-like receptor 8 (Homo sapiens) (UniProt Q9NR97); assay: Agonist activity at human TLR8 expressed in HEK293XL cells assessed as NF-kappaB activation after 18 hrs; type: functional, cell-based
T1 sequence (whole entry): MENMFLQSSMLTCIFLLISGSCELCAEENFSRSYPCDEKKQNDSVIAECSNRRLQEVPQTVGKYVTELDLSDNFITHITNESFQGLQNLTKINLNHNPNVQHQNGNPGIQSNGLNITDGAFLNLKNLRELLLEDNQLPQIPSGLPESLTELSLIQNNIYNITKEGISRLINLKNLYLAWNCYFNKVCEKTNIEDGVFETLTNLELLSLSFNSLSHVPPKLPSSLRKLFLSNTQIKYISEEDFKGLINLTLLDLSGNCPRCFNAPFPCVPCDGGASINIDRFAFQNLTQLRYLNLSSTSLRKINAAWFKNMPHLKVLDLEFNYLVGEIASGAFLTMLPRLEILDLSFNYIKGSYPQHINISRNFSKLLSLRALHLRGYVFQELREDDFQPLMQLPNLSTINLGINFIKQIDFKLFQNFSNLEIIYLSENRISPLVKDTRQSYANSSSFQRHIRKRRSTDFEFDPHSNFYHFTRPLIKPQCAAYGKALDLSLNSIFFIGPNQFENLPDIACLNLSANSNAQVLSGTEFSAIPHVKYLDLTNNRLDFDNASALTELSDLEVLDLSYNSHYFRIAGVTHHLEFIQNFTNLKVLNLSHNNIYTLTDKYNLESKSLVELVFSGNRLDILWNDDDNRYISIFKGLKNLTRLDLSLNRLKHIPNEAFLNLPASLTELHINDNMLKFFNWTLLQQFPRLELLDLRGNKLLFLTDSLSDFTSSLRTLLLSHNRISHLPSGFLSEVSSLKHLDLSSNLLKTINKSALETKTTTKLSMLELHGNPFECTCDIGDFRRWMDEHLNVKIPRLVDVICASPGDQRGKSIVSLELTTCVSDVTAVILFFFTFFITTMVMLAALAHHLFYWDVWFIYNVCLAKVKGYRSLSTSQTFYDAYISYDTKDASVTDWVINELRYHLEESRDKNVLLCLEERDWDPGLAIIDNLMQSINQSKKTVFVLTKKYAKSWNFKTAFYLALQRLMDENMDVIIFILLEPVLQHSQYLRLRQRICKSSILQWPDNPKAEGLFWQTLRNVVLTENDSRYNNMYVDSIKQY

[9] = tested on: PBMC; assay: Stimulation of immune response in human PBMC assessed as induction of RANTES production at 150 ug/ml after 24 hrs; type: functional, cell-based
[10] = tested on: PBMC; assay: Stimulation of immune response in human PBMC assessed as induction of IL12 production at 150 ug/ml after 24 hrs; type: functional, cell-based
[11] = species on record: Homo sapiens; assay: Stimulation of immune response in human pDC assessed as induction of MIP1alpha production at 150 ug/ml after 24 hrs; type: functional
[12] = tested on: PBMC; assay: Stimulation of immune response in human PBMC assessed as induction of IL10 production at 150 ug/ml after 24 hrs; type: functional, cell-based
[13] = tested on: PBMC; assay: Stimulation of immune response in human PBMC assessed as induction of IFNalpha production at 150 ug/ml after 24 hrs; type: functional, cell-based
[14] = species on record: Homo sapiens; assay: Stimulation of immune response in human pDC assessed as induction of MIP1beta production at 150 ug/ml after 24 hrs; type: functional
[15] = tested on: PBMC; assay: Stimulation of immune response in human PBMC assessed as induction of IL2R level at 150 ug/ml after 24 hrs; type: functional, cell-based
[16] = tested on: PBMC; assay: Stimulation of immune response in human PBMC assessed as induction of TNFalpha production at 150 ug/ml after 24 hrs; type: functional, cell-based
[17] = tested on: PBMC; assay: Stimulation of immune response in human PBMC assessed as induction of IL1-beta production at 150 ug/ml after 24 hrs; type: functional, cell-based
[18] = tested on: PBMC; assay: Stimulation of immune response in human PBMC assessed as induction of MIP1beta production at 150 ug/ml after 24 hrs; type: functional, cell-based
[19] = biological target: T2, Toll-like receptor 7 (Homo sapiens) (UniProt Q9NYK1); assay: Agonist activity at human TLR7 expressed in HEK293XL cells assessed as NF-kappaB activation at 300 ug/ml after 18 hrs; type: functional, cell-based
T2 sequence (whole entry): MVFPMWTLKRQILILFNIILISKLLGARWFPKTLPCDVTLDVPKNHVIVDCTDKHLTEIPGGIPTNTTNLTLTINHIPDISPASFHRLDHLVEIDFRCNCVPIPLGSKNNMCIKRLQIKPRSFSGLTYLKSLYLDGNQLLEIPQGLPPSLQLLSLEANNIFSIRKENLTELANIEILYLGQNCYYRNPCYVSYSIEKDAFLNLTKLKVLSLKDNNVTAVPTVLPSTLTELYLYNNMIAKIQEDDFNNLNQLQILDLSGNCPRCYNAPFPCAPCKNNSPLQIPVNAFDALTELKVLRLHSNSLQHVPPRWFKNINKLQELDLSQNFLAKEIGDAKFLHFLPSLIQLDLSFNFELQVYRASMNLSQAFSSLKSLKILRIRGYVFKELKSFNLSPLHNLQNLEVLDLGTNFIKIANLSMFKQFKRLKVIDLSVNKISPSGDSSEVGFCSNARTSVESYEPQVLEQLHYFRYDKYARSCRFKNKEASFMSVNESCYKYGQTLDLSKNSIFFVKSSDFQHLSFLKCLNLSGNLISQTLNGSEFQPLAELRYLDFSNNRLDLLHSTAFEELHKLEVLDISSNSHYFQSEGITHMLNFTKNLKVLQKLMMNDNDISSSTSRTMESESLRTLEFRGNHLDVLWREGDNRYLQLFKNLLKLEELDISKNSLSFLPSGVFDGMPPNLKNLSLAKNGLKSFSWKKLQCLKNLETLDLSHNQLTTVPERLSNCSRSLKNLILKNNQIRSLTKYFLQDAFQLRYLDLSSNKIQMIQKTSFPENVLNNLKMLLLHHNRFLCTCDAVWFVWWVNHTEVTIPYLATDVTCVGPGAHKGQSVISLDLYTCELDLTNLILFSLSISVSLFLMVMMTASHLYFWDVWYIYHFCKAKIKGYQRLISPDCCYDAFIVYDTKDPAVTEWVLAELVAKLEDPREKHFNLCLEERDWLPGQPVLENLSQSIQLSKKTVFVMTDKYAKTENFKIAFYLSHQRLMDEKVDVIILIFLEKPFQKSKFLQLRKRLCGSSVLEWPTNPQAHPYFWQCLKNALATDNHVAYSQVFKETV

[20] = tested on: PBMC; assay: Stimulation of immune response in human PBMC assessed as induction of MIP1alpha production at 150 ug/ml after 24 hrs; type: functional, cell-based
[21] = species on record: Homo sapiens; assay: Stimulation of immune response in human pDC assessed as induction of TNFalpha production at 150 ug/ml after 24 hrs; type: functional

Nc1ccn([C@@H]2O[C@H](COP(=O)(S)O[C@H]3[C@@H](O)[C@H](n4cnc5c(N)ncnc54)O[C@@H]3COP(=O)(S)O[C@H]3[C@@H](O)[C@H](n4cnc5c(=O)[nH]c(N)nc54)O[C@@H]3COP(=O)(S)O[C@H]3[C@@H](O)[C@H](n4ccc(=O)[nH]c4=O)O[C@@H]3COP(=O)(S)O[C@H]3[C@@H](O)[C@H](n4cnc5c(=O)[nH]c(N)nc54)O[C@@H]3COP(=O)(S)O[C@H]3[C@@H](O)[C@H](n4ccc(=O)[nH]c4=O)O[C@@H]3COP(=O)(S)O[C@H]3[C@@H](O)[C@H](n4cnc5c(=O)[nH]c(N)nc54)O[C@@H]3COP(=O)(S)O[C@H]3[C@@H](O)[C@H](n4ccc(=O)[nH]c4=O)O[C@@H]3COP(=O)(S)O[C@H]3[C@@H](O)[C@H](n4ccc(=O)[nH]c4=O)O[C@@H]3COP(=O)(S)O[C@H]3[C@@H](O)[C@H](n4cnc5c(=O)[nH]c(N)nc54)O[C@@H]3COP(=O)(S)O[C@H]3[C@@H](O)[C@H](n4ccc(=O)[nH]c4=O)O[C@H]3CO)[C@@H](OP(=O)(S)OCC(O)COP(=O)(S)O[C@H]3[C@@H](O)[C@H](n4ccc(N)nc4=O)O[C@@H]3COP(=O)(S)O[C@H]3[C@@H](O)[C@H](n4cnc5c(N)ncnc54)O[C@@H]3COP(=O)(S)O[C@H]3[C@@H](O)[C@H](n4cnc5c(=O)[nH]c(N)nc54)O[C@@H]3COP(=O)(S)O[C@H]3[C@@H](O)[C@H](n4ccc(=O)[nH]c4=O)O[C@@H]3COP(=O)(S)O[C@H]3[C@@H](O)[C@H](n4cnc5c(=O)[nH]c(N)nc54)O[C@@H]3COP(=O)(S)O[C@H]3[C@@H](O)[C@H](n4ccc(=O)[nH]c4=O)O[C@@H]3COP(=O)(S)O[C@H]3[C@@H](O)[C@H](n4cnc5c(=O)[nH]c(N)nc54)O[C@@H]3COP(=O)(S)O[C@H]3[C@@H](O)[C@H](n4ccc(=O)[nH]c4=O)O[C@@H]3COP(=O)(S)O[C@H]3[C@@H](O)[C@H](n4ccc(=O)[nH]c4=O)O[C@@H]3COP(=O)(S)O[C@H]3[C@@H](O)[C@H](n4cnc5c(=O)[nH]c(N)nc54)O[C@@H]3COP(=O)(S)O[C@H]3[C@@H](O)[C@H](n4ccc(=O)[nH]c4=O)O[C@@H]3CO)[C@H]2O)c(=O)n1 (stereo in doubt; 6)
Activity [1]: Active | Activity [2]: Active | Activity [3]: Active | Activity [4]: Active | Activity [5]: Active | Activity [6]: inactive | Activity [7]: inactive | Activity [8]: Dose-dependent effect | Activity [9]: Active | Activity [10]: Active | Activity [11]: Active | Activity [12]: Active | Activity [13]: Active | Activity [14]: Active | Activity [15]: Active | Activity [16]: Active | Activity [17]: Active | Activity [18]: Active | Activity [19]: inactive | Activity [20]: Active | Activity [21]: Active
